Reference: patent US8449898B2 (priority 2007, dated 2013)
Read-outs that look alike come from different tables or passages of the source.

Columns and labels:
[1] = system: Phytophthora infestans (the causal agent of tomato late blight); assay: whole plant or invertebrate; assay type: in vivo; settings: for pest or weed control at 0.4 ppm / pest or weed control at 2 ppm / pest or weed control at 10 ppm / pest or weed control at 40 ppm / pest or weed control at 200 ppm / pest or weed control at 0.04 ppm: Phytophthora infestans; for pest or weed control at 0.04 ppm: read-out: TLB Obsd (observed effect, tomato late blight), component (b) alone, 0.04 ppm; for TLB Obsd (disease control rating): Table B; for TLB Obsd (observed effect, tomato late blight): component (b) alone
[2] = system: Pseudoperonospora cubensis (the causal agent of cucumber downy mildew); assay: Test B: cucumber downy mildew, preventive spray on cucumber seedlings; assay type: in vivo; settings: for CDM Obsd (disease control rating): Table B
[3] = read-out: TLB Obsd (observed effect, tomato late blight), component (b) alone, 2 ppm
[4] = read-out: TLB Obsd (observed effect, tomato late blight), component (b) alone, 10 ppm
[5] = read-out: TLB Obsd (observed effect, tomato late blight), component (b) alone, 40 ppm
[6] = read-out: TLB Obsd (observed effect, tomato late blight), component (b) alone, 200 ppm
[7] = Pseudoperonospora cubensis, component (b) alone, read-out: CDM Obsd (observed effect, cucumber downy mildew)
[8] = Pseudoperonospora cubensis, component (b) alone, 2 ppm, read-out: CDM Obsd (observed effect, cucumber downy mildew)
[9] = Pseudoperonospora cubensis, component (b) alone, 10 ppm, read-out: CDM Obsd (observed effect, cucumber downy mildew)
[10] = Pseudoperonospora cubensis, component (b) alone, 40 ppm, read-out: CDM Obsd (observed effect, cucumber downy mildew)
[11] = Pseudoperonospora cubensis, component (b) alone, 200 ppm, read-out: CDM Obsd (observed effect, cucumber downy mildew)

`CCNC(=O)NC(=O)/C(C#N)=N/OC` [cymoxanil] gave a pest or weed control at 0.4 ppm ([1]; read-out: TLB Obsd (disease control rating), Table A, component (b) alone 0.4 ppm) of 9%, a pest or weed control at 2 ppm ([1]; read-out: TLB Obsd (disease control rating), Table A, component (b) alone 2 ppm) of 76% and a pest or weed control at 10 ppm ([1]; read-out: TLB Obsd (disease control rating), Table A, component (b) alone 10 ppm) of 100%. The pest or weed control at 40 ppm ([1]; read-out: TLB Obsd (disease control rating), Table A, component (b) alone 40 ppm) was 100%, the pest or weed control at 200 ppm ([1]; read-out: TLB Obsd (disease control rating), Table A, component (b) alone 200 ppm) was 100% and the pest or weed control at 0.04 ppm [1] was 44%. It also gave a pest or weed control at 2 ppm [1, 3] of 46%, a pest or weed control at 10 ppm [1, 4] of 100% and a pest or weed control at 40 ppm [1, 5] of 100%. The pest or weed control at 200 ppm [1, 6] was 100%, the pest or weed control at 0.4 ppm ([2]; Pseudoperonospora cubensis, Table A, component (b) alone 0.4 ppm, read-out: CDM Obsd (disease control rating)) was 47% and the pest or weed control at 2 ppm ([2]; Pseudoperonospora cubensis, Table A, component (b) alone 2 ppm, read-out: CDM Obsd (disease control rating)) was 47%. For the same compound, the pest or weed control at 10 ppm ([2]; Pseudoperonospora cubensis, Table A, component (b) alone 10 ppm, read-out: CDM Obsd (disease control rating)) was 47%, the pest or weed control at 40 ppm ([2]; Pseudoperonospora cubensis, Table A, component (b) alone 40 ppm, read-out: CDM Obsd (disease control rating)) was 47% and the pest or weed control at 200 ppm ([2]; Pseudoperonospora cubensis, Table A, component (b) alone 200 ppm, read-out: CDM Obsd (disease control rating)) was 47%. The pest or weed control at 0.4 ppm ([2]; Pseudoperonospora cubensis, Table G, component (b) alone at 0.4 ppm, read-out: CDM Obsd) was 26%, the pest or weed control at 2 ppm ([2]; Pseudoperonospora cubensis, Table G, component (b) alone at 2 ppm, read-out: CDM Obsd) was 26% and the pest or weed control at 10 ppm ([2]; Pseudoperonospora cubensis, Table G, component (b) alone at 10 ppm, read-out: CDM Obsd) was 26%. It also gave a pest or weed control at 40 ppm ([2]; Pseudoperonospora cubensis, Table G, component (b) alone at 40 ppm, read-out: CDM Obsd) of 26%, a pest or weed control at 200 ppm ([2]; Pseudoperonospora cubensis, Table G, component (b) alone at 200 ppm, read-out: CDM Obsd) of 26% and a pest or weed control at 0.04 ppm [2, 7] of 15%. The pest or weed control at 2 ppm [2, 8] was 0%, the pest or weed control at 10 ppm [2, 9] was 0% and the pest or weed control at 40 ppm [2, 10] was 0%. For the same compound, the pest or weed control at 200 ppm [2, 11] was 21%.
`O=[N+]([O-])c1cc(C(F)(F)F)c(Cl)c([N+](=O)[O-])c1Nc1ncc(C(F)(F)F)cc1Cl` [fluazinam] was tested, and the pest or weed control at 0.4 ppm ([1]; read-out: TLB Obsd (disease control rating), Table C, component (b) alone 0.4 ppm) was 17%, the pest or weed control at 2 ppm ([1]; read-out: TLB Obsd (disease control rating), Table C, component (b) alone 2 ppm) was 40% and the pest or weed control at 10 ppm ([1]; read-out: TLB Obsd (disease control rating), Table C, component (b) alone 10 ppm) was 80%. For the same compound, the pest or weed control at 40 ppm ([1]; read-out: TLB Obsd (disease control rating), Table C, component (b) alone 40 ppm) was 98%, the pest or weed control at 200 ppm ([1]; read-out: TLB Obsd (disease control rating), Table C, component (b) alone 200 ppm) was 100% and the pest or weed control at 0.04 ppm [1] was 23%. The pest or weed control at 2 ppm [1, 3] was 71%, the pest or weed control at 10 ppm [1, 4] was 99% and the pest or weed control at 40 ppm [1, 5] was 99%. It also gave a pest or weed control at 200 ppm [1, 6] of 100%, a pest or weed control at 0.4 ppm ([2]; Pseudoperonospora cubensis, Table C, component (b) alone 0.4 ppm, read-out: CDM Obsd (disease control rating)) of 57% and a pest or weed control at 2 ppm ([2]; Pseudoperonospora cubensis, Table C, component (b) alone 2 ppm, read-out: CDM Obsd (disease control rating)) of 60%. It also gave a pest or weed control at 10 ppm ([2]; Pseudoperonospora cubensis, Table C, component (b) alone 10 ppm, read-out: CDM Obsd (disease control rating)) of 91%, a pest or weed control at 40 ppm ([2]; Pseudoperonospora cubensis, Table C, component (b) alone 40 ppm, read-out: CDM Obsd (disease control rating)) of 100% and a pest or weed control at 200 ppm ([2]; Pseudoperonospora cubensis, Table C, component (b) alone 200 ppm, read-out: CDM Obsd (disease control rating)) of 100%. It also gave a pest or weed control at 0.4 µg/mL ([2]; Pseudoperonospora cubensis, component (b) alone 0.4 ppm (Compound 1 0 ppm), read-out: CDM Obsd) of 47%, a pest or weed control at 2 µg/mL ([2]; Pseudoperonospora cubensis, component (b) alone 2 ppm (Compound 1 0 ppm), read-out: CDM Obsd) of 57% and a pest or weed control at 10 µg/mL ([2]; Pseudoperonospora cubensis, component (b) alone 10 ppm (Compound 1 0 ppm), read-out: CDM Obsd) of 92%. The pest or weed control at 40 µg/mL ([2]; Pseudoperonospora cubensis, component (b) alone 40 ppm (Compound 1 0 ppm), read-out: CDM Obsd) was 100%, the pest or weed control at 200 µg/mL ([2]; Pseudoperonospora cubensis, component (b) alone 200 ppm (Compound 1 0 ppm), read-out: CDM Obsd) was 100% and the pest or weed control at 0.04 ppm [2, 7] was 56%. It also gave a pest or weed control at 2 ppm [2, 8] of 89%, a pest or weed control at 10 ppm [2, 9] of 98% and a pest or weed control at 40 ppm [2, 10] of 100%. It also gave a pest or weed control at 200 ppm [2, 11] of 100%.
In the case of `Cc1ccc(C(C)NC(=O)[C@@H](NC(=O)OC(C)C)C(C)C)cc1` (stereo partly drawn) [iprovalicarb], the “TLB Obsd (disease control rating)” value ([1]; component (b) alone 0.08 ppm) is reported as 0%, the “TLB Obsd (disease control rating)” value ([1]; component (b) alone 0.4 ppm) is reported as 9% and the “TLB Obsd (disease control rating)” value ([1]; component (b) alone 2 ppm) is reported as 39%. For the same compound, the “TLB Obsd (disease control rating)” value ([1]; component (b) alone 10 ppm) was 99%, the “TLB Obsd (disease control rating)” value ([1]; component (b) alone 40 ppm) was 100% and the “TLB Obsd (observed effect, tomato late blight)” value ([1]; 0.08 ppm) was 0. The “TLB Obsd (observed effect, tomato late blight)” value ([1]; 0.4 ppm) was 21, the “TLB Obsd (observed effect, tomato late blight)” value ([1]; 2 ppm) was 74 and the “TLB Obsd (observed effect, tomato late blight)” value ([1]; 10 ppm) was 98. The “TLB Obsd (observed effect, tomato late blight)” value ([1]; 40 ppm) was 100, the “CDM Obsd (disease control rating)” value ([2]; component (b) alone 0.08 ppm) was 47% and the “CDM Obsd (disease control rating)” value ([2]; component (b) alone 0.4 ppm) was 57%. For the same compound, the “CDM Obsd (disease control rating)” value ([2]; component (b) alone 2 ppm) was 77%, the “CDM Obsd (disease control rating)” value ([2]; component (b) alone 10 ppm) was 100% and the “CDM Obsd (disease control rating)” value ([2]; component (b) alone 40 ppm) was 100%. For the same compound, the “CDM Obsd” value ([2]; component (b) alone 0.08 ppm (Compound 1 0 ppm)) was 26%, the “CDM Obsd” value ([2]; component (b) alone 0.4 ppm (Compound 1 0 ppm)) was 26% and the “CDM Obsd” value ([2]; component (b) alone 2 ppm (Compound 1 0 ppm)) was 26%. For the same compound, the “CDM Obsd” value ([2]; component (b) alone 10 ppm (Compound 1 0 ppm)) was 88%, the “CDM Obsd” value ([2]; component (b) alone 40 ppm (Compound 1 0 ppm)) was 100% and the “CDM Obsd (observed effect, cucumber downy mildew)” value ([2]; component (b) alone, 0.08 ppm) was 0. The “CDM Obsd (observed effect, cucumber downy mildew)” value ([2]; component (b) alone, 0.4 ppm) was 0, the “CDM Obsd (observed effect, cucumber downy mildew)” value ([2]; component (b) alone, 2 ppm) was 0 and the “CDM Obsd (observed effect, cucumber downy mildew)” value ([2]; component (b) alone, 10 ppm) was 99. For the same compound, the “CDM Obsd (observed effect, cucumber downy mildew)” value ([2]; component (b) alone, 40 ppm) was 100.
